ChEMBL document CHEMBL5532634, “Oxazolidinone: A promising scaffold for the development of antibacterial drugs” (Eur J Med Chem, 2023)
≈ marks a conversion by molar mass, not a printed value.

Key:
[1] = tested on: Staphylococcus epidermidis; experiment: Antibacterial activity against Staphylococcus epidermidis ATCC 12228 assessed as reduction in bacterial growth measured after 24 hrs by broth microdilution method; format: functional
Staphylococcus aureus [2] = experiment: Antibacterial activity against Staphylococcus aureus ATCC 29213 assessed as bacterial growth inhibition incubated for 24 hrs by broth dilution method; format: functional
Staphylococcus aureus [3] = experiment: Antibacterial activity against methicillin-resistant Staphylococcus aureus ATCC 3300 assessed as reduction in microbial growth measured after 24 hrs by broth microdilution analysis; format: functional
Escherichia coli = experiment: Antibacterial activity against Escherichia coli; format: functional
Streptococcus pneumoniae [4] = experiment: Antibacterial activity against Streptococcus pneumoniae; format: functional
Staphylococcus aureus [5] = experiment: Antibacterial activity against Methicillin-resistant Staphylococcus aureus assessed as reduction in microbial growth by Muller Hinton broth based dilution assay; format: functional
MCF7 = experiment: Anticancer activity against human MCF7 cells assessed as inhibition of cell proliferation measured after 48 hrs by MTT assay; format: functional, cell-based; conditions: MCF7, 48 h
HT-29 = experiment: Anticancer activity against human HT-29 cells assessed as inhibition of cell proliferative measured after 48 hrs by MTT assay; format: functional, cell-based; conditions: HT-29, 48 h
Staphylococcus aureus [6] = experiment: Antibacterial activity against Staphylococcus aureus ATCC 25923 assessed as inhibition of bacterial growth incubated for 24 hrs by CLSI based broth microdilution method; format: functional
Enterococcus faecalis [7] = experiment: Antibacterial activity against Enterococcus faecalis ATCC 29212 assessed as inhibition of bacterial growth incubated for 24 hrs by CLSI based broth microdilution method; format: functional
Streptococcus pneumoniae [8] = experiment: Antibacterial activity against Streptococcus pneumoniae ATCC 49619 assessed as inhibition of bacterial growth incubated for 24 hrs by CLSI based broth microdilution method; format: functional
Bacillus subtilis = experiment: Antibacterial activity against Bacillus subtilis ATCC 6633 assessed as inhibition of bacterial growth incubated for 24 hrs by CLSI based broth microdilution method; format: functional
Staphylococcus aureus [9] = experiment: Antibacterial activity against Staphylococcus aureus ATCC 29213 assessed as reduction in microbial growth measured after 24 hrs by broth microdilution analysis; format: functional
Staphylococcus aureus [10] = experiment: In vivo antibacterial activity against Staphylococcus aureus UC9213 infected in PO dosed mouse assessed as reduction in bacterial infection measured after 6 days by hematoxylin and eosin staining based microscopic analysis; format: functional; conditions: UC9213, 144 h, time 6 day
Staphylococcus aureus [11] = experiment: Antibacterial activity against Staphylococcus aureus UC9213 assessed as reduction in bacterial growth; format: functional
Staphylococcus aureus [12] = experiment: Antibacterial activity against fluoroquinolone/methicillin resistant Staphylococcus aureus clinical isolate 19-26 assessed as bacterial growth inhibition measured after 16 to 18 hrs by serial dilution method; format: functional; conditions: time 16-18 hrs
Staphylococcus aureus [13] = experiment: Antibacterial activity against vancomycin-resistant Staphylococcus aureus assessed as bacterial growth inhibition measured after 16 to 18 hrs by serial dilution method; format: functional; conditions: time 16-18 hrs
[14] = tested on: Mycobacterium tuberculosis; experiment: Antimycobacterial activity against Mycobacterium tuberculosis H37Rv assessed as reduction in bacterial cell growth by resazurin reduction method; format: functional
[15] = Clearance in CF1 mouse; format: ADME; conditions: in vivo
Staphylococcus aureus [16] = experiment: Antibacterial activity against Methicillin-resistant Staphylococcus aureus assessed as inhibition of bacterial growth; format: functional
Staphylococcus aureus [17] = experiment: Antibacterial activity against methicillin-susceptible Staphylococcus aureus assessed as inhibition of bacterial growth; format: functional
Staphylococcus aureus [18] = experiment: Antibacterial activity against Staphylococcus aureus ATCC 25923 assessed as growth inhibition measured after 18 hrs by CLSI based method; format: functional
Streptococcus pneumoniae [19] = experiment: Antibacterial activity against Streptococcus pneumoniae ATCC 49619 assessed as reduction in bacterial growth measured after 18 hrs by CLSI based analysis; format: functional
Streptococcus pyogenes = experiment: Antibacterial activity Streptococcus pyogenes ATCC 12344 assessed as reduction in microbial growth by broth microdilution method; format: functional
Moraxella catarrhalis = experiment: Antibacterial activity against wild type Moraxella catarrhalis incubated for 20 hrs by two-fold serial dilution method; format: functional
Haemophilus influenzae = experiment: Antibacterial activity against Haemophilus influenzae ATCC 49247 by broth microdilution method; format: functional
[20] = tested on: Mycobacterium tuberculosis; experiment: Antimycobacterial activity against Mycobacterium tuberculosis assessed as reduction in bacterial growth; format: functional
[21] = tested on: Mycobacterium tuberculosis; experiment: Antimycobacterial activity against Mycobacterium tuberculosis H37Rv assessed as reduction in bacterial growth incubated for 7 days by resazurin based assay; format: functional; conditions: 168 h, time 7 day
PC-3 = experiment: Inhibition of mitochondrial protein synthesis in human PC-3 cells at 100 uM incubated for 5 days; format: functional, cell-based; conditions: PC-3, 120 h
Staphylococcus aureus [22] = experiment: Antibacterial activity against methicillin-resistant Staphylococcus aureus ATCC 4330 assessed as reduction in microbial growth incubated for 18 hrs by broth microdilution method; format: functional
[23] = tested on: Staphylococcus epidermidis; experiment: Antibacterial activity against methicillin-resistant Staphylococcus epidermidis ATCC 12228 assessed as reduction in microbial growth incubated for 18 hrs by broth microdilution method; format: functional
Staphylococcus aureus [24] = experiment: Antibacterial activity against vancomycin-resistant Staphylococcus aureus clinical isolate 1 assessed as inhibition of bacterial growth by broth microdilution method; format: functional
Enterococcus faecium = experiment: Antibacterial activity against Enterococcus faecium ATCC 19434 assessed as reduction in microbial growth after 24 hrs by two-fold serial dilution method; format: functional
Enterococcus faecalis [25] = experiment: Antibacterial activity against Enterococcus faecalis ATCC 29212 assessed as reduction in microbial growth after 24 hrs by two-fold serial dilution method; format: functional
Streptococcus pneumoniae [26] = experiment: Antibacterial activity against Streptococcus pneumoniae ATCC 49619 assessed as inhibition of bacterial growth measured after 24 hrs by MH broth based assay; format: functional

## O=C(CO)N1CC=C(c2ccc(N3C[C@H](COc4cnsn4)OC3=O)cc2F)CC1
[1]
  MIC: 0.13 µg/mL (≈ 0.299 µM)

## C/C(S)=N\C[C@H]1CN(c2cc(F)c3c(c2)OC[C@@H]2CCCN32)C(=O)O1
Staphylococcus aureus [2]
  MIC: 0.5 µg/mL (≈ 1.37 µM)

## O=C1O[C@@H](COc2ccon2)CN1c1ccc(C2=CCOCC2)c(F)c1
Staphylococcus aureus [3]
  MIC: 0.5 µg/mL

## O=C(NO)[C@@H]1CN(c2ccc(C#CC#CC3CC3)c(F)c2)C(=O)O1
Escherichia coli
  MIC: 0.004 µg/mL (≈ 0.0122 µM)
Streptococcus pneumoniae [4]
  MIC: 0.004 µg/mL (≈ 0.0122 µM)

## O=C1O[C@@H](Cn2ccnn2)CN1c1ccc(N2CCN(S(=O)(=O)c3cccc([N+](=O)[O-])c3)CC2)c(F)c1
Staphylococcus aureus [5]
  MIC: 0.5 µg/mL

## O=C1NC2(CO1)O/C(=C\c1ccc(Cl)cc1)C(=O)N2CCCNc1ccnc2cc(Cl)ccc12 (configuration not stated)
MCF7
  IC50: 16.1 µM
HT-29
  IC50: 32.4 µM

## CC(=O)NC[C@H]1CN(c2ccc(N3CCN(C(=O)/C=C/c4ccco4)CC3)nc2)C(=O)O1
Staphylococcus aureus [6]
  MIC: 8 µg/mL (≈ 18.2 µM)
Enterococcus faecalis [7]
  MIC: 8 µg/mL (≈ 18.2 µM)

## O=C([C@H](O)CO)N1CC=C(c2ccc(N3C[C@H](COc4cnsn4)OC3=O)cc2F)CC1
[1]
  MIC: 0.13 µg/mL (≈ 0.28 µM)

## CC(=O)NC[C@H]1CN(c2ccc(N3CCN(C(=O)c4ccco4)CC3)nc2)C(=O)O1
Streptococcus pneumoniae [8]
  MIC: > 64 µg/mL

## CC(=O)NC[C@H]1CN(c2cnc(N3CCN(C(=O)/C=C/c4ccco4)CC3)c(F)c2)C(=O)O1
Bacillus subtilis
  MIC: 4 µg/mL (≈ 8.74 µM)

## O=C([C@H](O)CO)N1CC=C(c2ccc(N3C[C@H](COc4ccon4)OC3=O)cc2F)CC1
Staphylococcus aureus [9]
  MIC: 0.25 µg/mL

## CC(=O)NC[C@H]1CC(c2ccc(C3=CCN(C(=O)CO)CC3)c(F)c2)=NO1
Staphylococcus aureus [10]
  ED50: 9.1 mg/kg
Staphylococcus aureus [11]
  MIC: 1 µg/mL (≈ 2.66 µM)

## O=C1C=CN(c2c(F)cc(N3C[C@H](CNc4ccon4)OC3=O)c(F)c2F)CC1 [CONTEZOLID]
Staphylococcus aureus [12]
  MIC: 0.125 µg/mL (≈ 0.306 µM)
Staphylococcus aureus [13]
  MIC: 0.5 µg/mL (≈ 1.22 µM)

## CN1CCN(c2ccc(N3C[C@H](CO)OC3=O)cc2F)C=N1 [DELPAZOLID]
[14]
  MIC: 0.5 µg/mL (≈ 1.62 µM)

## CC(=O)NC[C@H]1CN(c2ccc(N3CCOCC3)c(F)c2)C(=O)O1 [LINEZOLID]
[15]
  clearance: 10.5 mL/min/kg
Staphylococcus aureus [16]
  MIC: 1 µg/mL (≈ 2.96 µM)
Staphylococcus aureus [17]
  MIC: 1 µg/mL (≈ 2.96 µM)

## O=C([C@@H](O)CO)N1CC=C(c2c(F)cc(N3C[C@H](COc4ccon4)OC3=O)cc2F)CC1 [POSIZOLID]
Staphylococcus aureus [9]
  MIC: 0.25 µg/mL

## CC(=O)NC[C@H]1CN(c2ccc(-c3ccc(CNCc4cnn[nH]4)cc3)c(F)c2)C(=O)O1 [RADEZOLID]
Staphylococcus aureus [18]
  MIC: 1 µg/mL (≈ 2.28 µM)
Streptococcus pneumoniae [19]
  MIC: 0.25 µg/mL (≈ 0.57 µM)
Streptococcus pyogenes
  MIC: 0.25 µg/mL
Moraxella catarrhalis
  MIC90: 0.5 µg/mL (≈ 1.14 µM)
Haemophilus influenzae
  MIC90: 1 µg/mL (≈ 2.28 µM)

## CC(=O)NC[C@H]1CN(c2ccc(N3CCSCC3)c(F)c2)C(=O)O1 [SUTEZOLID]
[20]
  MIC: 0.125 µg/mL (≈ 0.354 µM)

## COC(=O)NC[C@H]1CN(c2ccc(N3CC4(COC4)C3)c(F)c2)C(=O)O1 [TBI-223]
[21]
  MIC: 0.6 µg/mL (≈ 1.64 µM)
PC-3
  IC50: > 74 µM

## Cn1nnc(-c2ccc(-c3ccc(N4C[C@H](COP(=O)(O)O)OC4=O)cc3F)cn2)n1 [TEDIZOLID PHOSPHATE]
Staphylococcus aureus [22]
  MIC50: 0.12 µg/mL
[23]
  MIC90: 0.12 µg/mL
Staphylococcus aureus [24]
  MIC: 0.25 µg/mL
Enterococcus faecium
  MIC: 0.25 µg/mL
Enterococcus faecalis [25]
  MIC: 0.25 µg/mL
Streptococcus pneumoniae [26]
  MIC: 0.25 µg/mL
